pEC50: −log10 of the molar value.
Tests used:
Assay type in all cases: functional
[1] = Cytotoxicity against human KBVIN cells after 72 hrs by SRB assay; conditions: read-out: ED50 (the source's name)
DU-145 = test: Cytotoxicity against human DU145 cells after 72 hrs by SRB assay; conditions: DU-145, 72 h, read-out: ED50 (the source's name)
A549 = test: Cytotoxicity against human A549 cells after 72 hrs by SRB assay; conditions: A549, 72 h, read-out: ED50 (the source's name)
ZR-75-1 = test: Cytotoxicity against human ZR-75-1 cells after 72 hrs by SRB assay; conditions: ZR-75-1, 72 h, read-out: ED50 (the source's name)
MDA-MB-231 = test: Cytotoxicity against human MDA-MB-231 cells after 72 hrs by SRB assay; conditions: MDA-MB-231, 72 h, read-out: ED50 (the source's name)
SK-BR-3 = test: Cytotoxicity against human SK-BR-3 cells after 72 hrs by SRB assay; conditions: SK-BR-3, 72 h, read-out: ED50 (the source's name)
KB = test: Cytotoxicity against human KB cells after 72 hrs by SRB assay; conditions: read-out: ED50 (the source's name)

Row | SMILES | pEC50 [1] | pEC50 (DU-145) | pEC50 (A549) | pEC50 (ZR-75-1) | pEC50 (MDA-MB-231) | pEC50 (SK-BR-3) | pEC50 (KB)
1 | O=c1cc(Nc2cccc3ccccc23)c2ccc3ccccc3c2o1 | 6.70 | 6.52 | 6.60 | 6.28 | 6.33 | 6.49 | 6.57
2 | O=c1cc(NC2CC2)c2ccc3ccccc3c2o1 | 5.00 | 5.02 | 4.53 | 4.71 | 5.00 | 4.68 | 5.11
3 | O=c1cc(Nc2ccccc2Br)c2ccc3ccccc3c2o1 | 6.82 | 6.64 | 6.72 | 6.42 | 5.59 | 6.59 | 6.80
4 | COC(=O)CNc1cc(=O)oc2c1ccc1ccccc12 | 5.51 | 5.39 | 5.33 | 5.17 | 5.38 | 5.42 | 5.34
5 | CCCN(CCC)c1cc(=O)oc2c1ccc1ccccc12 | 4.68 | < 4.52 | < 4.52 | < 4.52 | 4.52 | < 4.52 | < 4.52
6 | COc1ccc(Nc2cc(=O)oc3c2ccc2ccccc23)cc1 | 6.89 | 6.96 | 6.77 | 8.00 | 7.70 | 6.89 | 6.96
7 | O=c1cc(Nc2ccc(Br)cc2)c2ccc3ccccc3c2o1 | 6.33 | 6.28 | 6.14 | 5.51 | 5.17 | 6.30 | 6.39
8 | O=c1cc(Nc2ccc(F)cc2)c2ccc3ccccc3c2o1 | 6.29 | 6.11 | 6.09 | 5.49 | < 4.52 | 5.96 | 5.92
9 | CON(C)C(=O)CNc1cc(=O)oc2c1ccc1ccccc12 | 5.52 | 5.49 | 5.51 | 6.32 | 5.24 | 5.35 | 5.66
10 | O=c1cc(N2CCOCC2)c2ccc3ccccc3c2o1 | < 4.52 | < 4.52 | < 4.52 | 5.41 | < 4.52 | < 4.52 | < 4.52
11 | COc1cccc(Nc2cc(=O)oc3c2ccc2ccccc23)c1 | 6.77 | 6.57 | 6.54 | 6.30 | 5.89 | 6.52 | 6.66
12 | Cc1ccccc1Nc1cc(=O)oc2c1ccc1ccccc12 | 6.08 | 5.89 | 5.89 | 5.37 | 5.08 | 5.80 | 5.68
13 | O=c1cc(Nc2ccccc2)c2ccc3ccccc3c2o1 | 6.30 | 6.09 | 6.01 | 6.04 | 6.57 | 5.80 | 6.36
14 | Cc1cccc2c1ccc1c3occ(C)c3c(=O)oc21 | < 4.52 | < 4.52 | < 4.52 | 6.02 | < 4.52 | 6.02 | < 4.52
15 | CCc1cccc2c1ccc1c(NCC(=O)N(C)OC)cc(=O)oc12 | 4.71 | 4.79 | 4.75 | 4.74 | < 4.52 | 4.76 | 4.67
16 | CNc1cc(=O)oc2c1ccc1ccccc12 | < 4.52 | < 4.52 | < 4.52 | < 4.52 | < 4.52 | < 4.52 | < 4.52
17 | Cc1cccc(Nc2cc(=O)oc3c2ccc2ccccc23)c1 | 6.85 | 6.85 | 6.82 | 7.10 | 6.12 | 6.82 | 6.85
18 | O=c1cc(N2CCCCC2)c2ccc3ccccc3c2o1 | 4.96 | < 4.52 | < 4.52 | < 4.52 | 4.52 | < 4.52 | < 4.52
19 | COc1ccccc1Nc1cc(=O)oc2c1ccc1ccccc12 | 6.33 | 6.12 | 6.22 | 5.33 | 5.14 | 6.19 | 6.30
20 | CCc1ccc(Nc2cc(=O)oc3c2ccc2ccccc23)cc1 | 6.74 | 6.52 | 6.70 | 6.10 | 5.85 | 6.52 | 6.55
21 | CCCNc1cc(=O)oc2c1ccc1ccccc12 | 4.97 | < 4.52 | < 4.52 | < 4.52 | 4.70 | < 4.52 | < 4.52
22 | O=c1cc(Nc2cccc(Br)c2)c2ccc3ccccc3c2o1 | < 4.52 | < 4.52 | < 4.52 | < 4.52 | < 4.52 | < 4.52 | < 4.52
23 | O=c1cc(NC2CCCCC2)c2ccc3ccccc3c2o1 | 6.37 | 6.01 | 6.14 | 5.24 | 5.39 | 5.89 | 6.21
24 | Cc1ccc(Nc2cc(=O)oc3c2ccc2ccccc23)cc1 | 6.77 | 6.43 | 6.60 | 4.89 | 4.82 | 6.42 | 6.66

Source: ChEMBL document CHEMBL1177814, “Antitumor agents 278. 4-Amino-2H-benzo[h]chromen-2-one (ABO) analogs as potent in vitro anti-cancer agents” (2010)
